Reference: paper PMC10551045 (Journal of the American Chemical Society, 2023)
Like-named read-outs stand apart in the source and are kept apart here.

Experiments:
GBM-A = assay: cell killing, GBM-A patient-derived GBM CSC line; assay type: cell-based, human; details: for IC50: read-out: GBM-A IC50
GBM-F = assay: cell killing, GBM-F patient-derived GBM CSC line; assay type: cell-based, human; details: for IC50: read-out: GBM-F IC50
[1] = tested on: primary human astrocytes (HA); assay: cytotoxicity in control primary human astrocytes; assay type: cell-based; details: for IC50: read-out: HA IC50
[2] = tested on: WA09 human ES cell-derived neural progenitor cells (NPC); assay: cytotoxicity in control neural progenitor cells; assay type: cell-based; details: for IC50: read-out: NPC IC50
[3] = tested on: primary human lung fibroblasts (HLF); assay: cytotoxicity in control primary human lung fibroblasts; assay type: cell-based; details: read-out: HLF IC50
[4] = tested on: control neural cell types; assay: cytotoxicity in control neural cell types; assay type: cell-based, human; details: read-out: IC50 in control neural cell types
U118MG = assay: cytotoxicity in hypo-MGMT methylated cell line; assay type: cell-based; details: read-out: U118MG IC50
LN229 = assay: cytotoxicity in hyper-MGMT methylated cell line; assay type: cell-based
U87-EGFRvIII cells = assay: Cell-titer glo cell viability in U87-EGFRvIII cells after shRNA knockdown; assay type: cell-based; details: for cell viability on loss of RIPK2 / sensitivity following shRNA-mediated RIPK1 knockdown: U87-EGFRvIII; for cell viability on loss of RIPK2: RIPK2 shRNA vs control, YM155 20 nM, aYM155 160 nM; for sensitivity following shRNA-mediated RIPK1 knockdown: induced tumor cell death; for IC50: read-out: 24-hour IC50 value
HT-1080 cells = assay: Cell-titer glo cell viability in HT-1080 cells after shRNA RIPK2 knockdown; assay type: cell-based; details: HT-1080, RIPK2 shRNA vs control, 24 hours; YM155 4 nM, aYM155 40 nM
Casp-3/7 = assay: Caspase-Glo 3/7 assay in HT-1080 cells; assay type: cell-based; details: for Casp3/7 activation on SLC35F2 shRNA knockdown: HT-1080; for Casp-3/7 activation in RIPK2 shRNA knockdown cells vs non-targeting control: HT-1080, 8 hours; for Casp-3/7 activation: HT-1080, 8 hours of treatment
[5] = two-week mouse tolerability study; assay type: in vivo; details: oral, 1.0 and 5.0 mg/kg B.I.D., two weeks, naïve animals
hERG channel = hERG channel (Homo sapiens, UniProt Q12809); assay: hERG channel inhibition assay; assay type: biochemical; details: at 3 μM, highest tested concentration
[6] = tested on: U87EGFRvIII intracranial xenografts; assay: orthotopic intracranial GBM xenograft, tumor growth by FMT; assay type: in vivo, athymic nude mice; details: oral, 5mg/kg and 15 mg/kg, B.I.D.
survivin mRNA = assay type: in vivo, athymic nude mice; details: 1 hour after last dose of 9-day regimen
[7] = tested on: GBM CSCs and non-diseased cells; assay: MS-based metabolite identification of aYM155 activation in cells; assay type: cell-based, human; details: 100 nM, 24 hours
[8] = brain tissue distribution pharmacokinetic study; details: 10 mg/kg, P.O., CD-1 mice
[9] = tested on: HT-1080 fibrosarcoma cells; assay: cytotoxicity in HT-1080 fibrosarcoma cells; assay type: cell-based; details: Homo sapiens, HT-1080, read-out: HT-1080 IC50
Survivin [10] = assay: Western blot of survivin in U87-EGFRvIII cells after shRNA RIPK2 knockdown; assay type: cell-based; details: U87MG stably expressing EGFRvIII, 100 nM, 24 hours
Survivin [11] = assay: Western blot of survivin in HT-1080 cells after shRNA RIPK2 knockdown; assay type: cell-based; details: 24 hours
Casp-1 = Casp-1 activation in cells; assay type: cell-based; details: HT-1080, EGFRvIII amplified U87MG cells and GBM CSCs
IκBα phosphorylation = IκBα phosphorylation after NOD2 stimulation with L-18 MDP; assay type: cell-based; details: U87EGFRvIII cells, pretreatment 100nM, L-18 MDP stimulation
[12] = target: T1, recombinant human full-length RIPK2 (Homo sapiens, UniProt O43353); assay: in vitro competitive binding, UV-dependent labeling of RIPK2 by cRIPGBM-PAP
[13] = target: T1, recombinant human full-length RIPK2; details: read-out: apparent Kd for RIPK2; cited from earlier work

T1 sequence (O43353 whole entry): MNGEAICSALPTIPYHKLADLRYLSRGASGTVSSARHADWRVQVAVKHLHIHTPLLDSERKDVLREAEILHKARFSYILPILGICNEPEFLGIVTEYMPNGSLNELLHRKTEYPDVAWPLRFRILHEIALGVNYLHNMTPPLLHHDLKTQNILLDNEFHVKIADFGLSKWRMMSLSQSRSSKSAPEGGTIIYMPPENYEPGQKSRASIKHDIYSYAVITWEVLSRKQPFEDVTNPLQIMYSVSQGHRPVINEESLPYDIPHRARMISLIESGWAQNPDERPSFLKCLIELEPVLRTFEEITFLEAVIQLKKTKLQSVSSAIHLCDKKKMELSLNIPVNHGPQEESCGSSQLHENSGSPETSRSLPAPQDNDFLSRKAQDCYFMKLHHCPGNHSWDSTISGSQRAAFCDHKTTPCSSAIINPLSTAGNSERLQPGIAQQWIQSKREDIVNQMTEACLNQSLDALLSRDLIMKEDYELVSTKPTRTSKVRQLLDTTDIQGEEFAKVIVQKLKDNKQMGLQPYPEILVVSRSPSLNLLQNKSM
hERG channel, sequence (Q12809 whole entry): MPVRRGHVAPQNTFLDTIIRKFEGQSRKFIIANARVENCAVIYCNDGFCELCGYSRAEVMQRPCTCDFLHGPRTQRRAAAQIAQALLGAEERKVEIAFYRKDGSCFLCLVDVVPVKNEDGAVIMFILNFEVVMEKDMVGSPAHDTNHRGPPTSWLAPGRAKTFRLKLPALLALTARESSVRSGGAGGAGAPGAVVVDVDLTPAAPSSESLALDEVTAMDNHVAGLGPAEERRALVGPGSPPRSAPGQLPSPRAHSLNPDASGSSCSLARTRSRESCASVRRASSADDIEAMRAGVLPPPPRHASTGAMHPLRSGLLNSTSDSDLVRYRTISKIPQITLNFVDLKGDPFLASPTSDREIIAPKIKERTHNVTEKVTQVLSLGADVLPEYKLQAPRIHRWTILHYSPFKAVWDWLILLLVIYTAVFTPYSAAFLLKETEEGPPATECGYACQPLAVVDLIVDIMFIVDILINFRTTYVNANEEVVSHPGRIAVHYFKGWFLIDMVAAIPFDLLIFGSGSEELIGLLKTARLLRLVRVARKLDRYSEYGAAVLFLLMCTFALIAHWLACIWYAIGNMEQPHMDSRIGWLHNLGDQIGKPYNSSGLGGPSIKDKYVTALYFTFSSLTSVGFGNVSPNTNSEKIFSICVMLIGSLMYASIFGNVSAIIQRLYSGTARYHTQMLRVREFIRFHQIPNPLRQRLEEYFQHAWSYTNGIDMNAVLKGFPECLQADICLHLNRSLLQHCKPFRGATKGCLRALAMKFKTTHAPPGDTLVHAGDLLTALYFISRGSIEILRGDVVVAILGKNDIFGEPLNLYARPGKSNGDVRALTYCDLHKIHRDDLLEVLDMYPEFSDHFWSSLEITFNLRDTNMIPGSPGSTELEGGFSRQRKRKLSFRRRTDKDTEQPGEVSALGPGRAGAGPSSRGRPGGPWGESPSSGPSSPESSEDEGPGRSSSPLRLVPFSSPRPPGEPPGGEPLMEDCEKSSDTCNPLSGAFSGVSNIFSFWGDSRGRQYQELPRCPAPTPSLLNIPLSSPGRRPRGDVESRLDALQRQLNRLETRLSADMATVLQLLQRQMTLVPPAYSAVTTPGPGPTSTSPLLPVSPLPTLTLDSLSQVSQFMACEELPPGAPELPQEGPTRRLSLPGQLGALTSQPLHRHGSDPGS

CC(=O)N(Cc1ccc(F)cc1)C1=C(NCc2ccccc2)C(=O)c2ccccc2C1=O [RIPGBM]
IC50 (GBM-A; cell killing, 72 hours): 200 nM | IC50 (GBM-F; cell killing): 400 nM

Cc1n(Cc2ccc(F)cc2)c2c([n+]1Cc1ccccc1)C(=O)c1ccccc1C2=O [cRIPGBM]
IC50 (GBM-A; cell killing, 72 hours): 27 nM | IC50 (GBM-F; cell killing): 70 nM

COCCN(C(C)=O)C1=C(NCc2cnccn2)C(=O)c2ccccc2C1=O [aYM155]
fold less potent compared to YM155 (GBM-A; GBM-A): 2.2 fold | IC50 (GBM-A; cell killing, 72 hours): 10 nM | potency compared to YM155 (GBM-F; GBM-F): ~ equivalent | IC50 (GBM-F; cell killing, 72 hours): 0.65 nM | fold less potent compared to YM155 ([1]; HA): 12 fold | IC50 ([1]; control cell type, 72 hours): 62 nM | fold less potent compared to YM155 ([2]; NPC): 19 fold | IC50 ([2]; control cell type, 72 hours): 97 nM | IC50 ([3]; control cell type): 2000 nM | IC50 ([4]; HA and NPC): 62 to 97 nM | IC50 (U118MG; hypo-MGMT methylated): 11 nM | IC50 (LN229; read-out: LN229 IC50, hyper-MGMT methylated): 12 nM | cell viability on loss of RIPK2 (U87-EGFRvIII cells; 24 hours): significant rescue of cell viability | sensitivity following shRNA-mediated RIPK1 knockdown (U87-EGFRvIII cells): No significant differences in sensitivity | IC50 (U87-EGFRvIII cells; U87-EGFRvIII cells, 24 hours): 160 nM | cell viability on loss of RIPK2 (HT-1080 cells): significant rescue of cell viability | Casp3/7 activation on SLC35F2 shRNA knockdown (Casp-3/7): ablated | Casp-3/7 activation in RIPK2 shRNA knockdown cells vs non-targeting control (Casp-3/7): significantly reduced | Casp-3/7 activation (Casp-3/7): Casp-3/7 activation was observed | tolerability (weight loss and behavioral observations) [5]: well tolerated | hERG channel inhibition (hERG channel): < 20% | tumor growth by FMT imaging [6]: significant inhibition of tumor growth | survivin expression levels in human tumor tissue (survivin mRNA; 5 and 15 mg/kg B.I.D.): significantly decrease survivin expression levels | survivin expression in normal brain tissue (survivin mRNA): no effect | rates of conversion to YM155 in GBM CSC populations compared to non-transformed control cell types [7]: significantly higher | brain Cmax [8]: 32 nM | brain/plasma concentration ratio [8]: 0.56

COCCn1c2c([n+](Cc3cnccn3)c1C)C(=O)c1ccccc1C2=O [YM155, sepantronium bromide]
IC50 (GBM-A; Homo sapiens, 72 h): 4.5 nM | IC50 (GBM-F; Homo sapiens, 72 h): 0.78 nM | IC50 ([1]; Homo sapiens, Astrocyte, 72 h): 5.1 nM | IC50 ([2]; Homo sapiens, 72 h): 5 nM | IC50 ([3]; Homo sapiens, Fibroblast): 92 nM | IC50 ([4]; Homo sapiens): 5 nM | IC50 (U118MG; Homo sapiens, U-118-MG): 3.7 nM | IC50 (LN229; Homo sapiens, LN-229, read-out: LN229 IC50): 2.8 nM | IC50 [9]: 3.1 nM | IC50 (U87-EGFRvIII cells; 24 h): 20 nM | cell viability on loss of RIPK2 (U87-EGFRvIII cells; 24 hours): significant rescue of cell viability | sensitivity following shRNA-mediated RIPK1 knockdown (U87-EGFRvIII cells): No significant differences in sensitivity | survivin expression on RIPK2 knockdown (Survivin [10]): significant rescue of survivin expression | cell viability on loss of RIPK2 (HT-1080 cells): significant rescue of cell viability | concentration required to significantly impact survivin protein levels (Survivin [11]; HT-1080 RIPK2 shRNA cells): 100 nM | concentration giving significant reduction of survivin protein levels (Survivin [11]; HT-1080 non-targeting shRNA control cells): 10 nM | Casp3/7 activation on SLC35F2 shRNA knockdown (Casp-3/7): ablated | Casp-3/7 activation in RIPK2 shRNA knockdown cells vs non-targeting control (Casp-3/7): significantly reduced | Casp-3/7 activation (Casp-3/7): Casp-3/7 activation was observed | Casp-1 activation (Casp-1): time dependent activation of Casp-1 | IKK activation (IκBα phosphorylation) (IκBα phosphorylation): reduced IKK activation | potency of inhibition of cRIPGBM-PAP RIPK2 labeling relative to cRIPGBM [12]: ~ 10 fold | inhibition of UV-dependent covalent labeling of RIPK2 by cRIPGBM-PAP ([12]; cRIPGBM-PAP 1 μM, at concentrations as low as 30nM): at least 50% | brain exposure [8]: no brain exposure above limits of quantification

Cc1n(Cc2ccc(N=[N+]=[N-])cc2)c2c([n+]1CCOCCOCCNC(=O)CCCC[C@@H]1SC[C@@H]3NC(=O)N[C@@H]31)C(=O)c1ccccc1C2=O [cRIPGBM-PAP]
Kd [13]: 2300 nM
